Read-outs that look alike come from different tables or passages of the source.
Tests used:
TNFα [1] = experiment: TNFα secretion by stimulated white blood cells, SSRI/corticosteroid combination matrices (Example 4, stimulus not given); type: cell-based; conditions: Homo sapiens, read-out: percent inhibition of TNFα secretion; for inhibition at 0.003 µM: prednisolone 0.003 μM; for inhibition at 0.006 µM: prednisolone 0.006 μM; for inhibition at 0.05 µM: prednisolone 0.050 μM; for inhibition at 0.1 µM: prednisolone 0.100 μM; for inhibition at 0.2 µM: prednisolone 0.200 μM
IL-2 = IL-2 secretion by white blood cells/PBMC stimulated with phorbol 12-myristate 13-acetate and ionomycin (PI), ELISA; conditions: for percent inhibition of cytokine secretion, IL-2: concentration (μM)
Experimental: (§1) Various concentrations of each test compound were added at the time of stimulation. […] After the plate was washed with 0.1% Tween 20/PBS, an HRP-luminescent substrate was added to each well and light intensity measured using a LJL Analyst plate luminometer.
(§2) Single agents were tested for the ability to suppress secretion of IFNγ, IL-1β, IL-2, and TNFα from stimulated white blood cells, and the percent inhibition of cytokine secretion, relative to untreated stimulated white blood cells, was determined.

TNFα [2] = experiment: TNFα secretion by white blood cells/PBMC stimulated with phorbol 12-myristate 13-acetate and ionomycin (PI), ELISA; conditions: concentration (μM)
Experimental: as §1, §2

IL-1β = IL-1β secretion by white blood cells stimulated with lipopolysaccharide, ELISA; type: cell-based, human
Experimental: as §1, §2

TNFα [3] = experiment: TNFα secretion by white blood cells stimulated with lipopolysaccharide (LPS), ELISA; type: cell-based, human; conditions: concentration (μM)
Experimental: as §1, §2

IL-5 = IL-5 secretion, buffy coat assay supernatant, Cytometric 6 Bead Array; conditions: Homo sapiens, read-out: IL-5 % Inhibition
Experimental: (§3) Analysis of IL-4 and IL-5 cytokine expression was performed using the BD PharMingen Cytometric 6 Bead Array system according to the manufacturer's instructions. Briefly, the supernatant from a buffy coat assay plate wa incubated with the labeled cytokine detection bead cocktail. The samples were then washed, resuspended and read on the BD Pharmingen FACsCalibur flow cytometer. Data was then analyzed using the BD Pharmingen CBA 6 Bead Analysis software.

IL-4 = IL-4 secretion, buffy coat assay supernatant, Cytometric 6 Bead Array; conditions: Homo sapiens, read-out: IL-4 % Inhibition
Experimental: as §3

[4] = citalopram alone, 20.00 to 0.01
[5] = Homo sapiens, PBMC, read-out: % Inhibition IL-2 PBMC PI
[6] = fluoxetine alone, 29.00 to 0.01
[7] = norfluoxetine alone, 45.00 to 0.02
[8] = paroxetine alone, 27.00 to 0.03
[9] = fluoxetine concentration (μM), 7.230 to 0.000
[10] = paroxetine concentration (μM), 6.000 to 0.000
[11] = R(+) fluoxetine alone, 58 to 0.028
[12] = S(+) fluoxetine alone, 58 to 0.028

For `CCCC1O[C@@H]2C[C@H]3[C@@H]4CCC5=CC(=O)C=C[C@]5(C)[C@H]4[C@@H](O)C[C@]3(C)[C@]2(C(=O)CO)O1` (stereo partly shown) [Budesonide, budesonide], the inhibition at 0.0005 µM (TNFα [1]; budesonide 0.0005 μM, fluoxetine concentration (μM), 0 to 0.580) was -2.4%, the inhibition at 0.002 µM (TNFα [1]; budesonide 0.002 μM, fluoxetine concentration (μM), 0 to 0.580) was -8.9% and the inhibition at 0.009 µM (TNFα [1]; budesonide 0.009 μM, fluoxetine concentration (μM), 0 to 0.580) was 5.3%.
For `CN(C)CCCC1(c2ccc(F)cc2)OCc2cc(C#N)ccc21` (stereo not shown) [Citalopram], the “percent inhibition of cytokine secretion, IL-2” value (“percent inhibition … IL-2” below) (IL-2; [4]) was 0% and the “percent inhibition of cytokine secretion, TNFα (PI)” value (“percent inhibition … (PI)” for short) (TNFα [2]; [4]) was 0%.
`C[C@@H]1C[C@H]2[C@@H]3CCC4=CC(=O)C=C[C@]4(C)[C@@]3(F)[C@@H](O)C[C@]2(C)[C@@]1(O)C(=O)CO` [Dexamethasone, dexamethasone] gave an inhibition at 0.0004 µM (TNFα [1]; dexamethasone 0.0004 μM, paroxetine concentration (μM), 0 to 6.000) of 2.1%, an inhibition at 0.0006 µM (TNFα [1]; dexamethasone 0.0006 μM, fluoxetine concentration (μM), 0 to 0.580) of -3.8% and an inhibition at 0.0008 µM (TNFα [1]; dexamethasone 0.0008 μM, paroxetine concentration (μM), 0 to 6.000) of 6.7%.
`CNCCC(Oc1ccc(C(F)(F)F)cc1)c1ccccc1` (stereo not shown) [Fluoxetine] was tested, and the “percent inhibition of cytokine secretion, IL-1β” value (from here on “percent inhibition … IL-1β”) (IL-1β; fluoxetine alone, concentration (μM), 29.00 to 0.01) was 0%, the inhibition at 10 µM (IL-2; [5]) was 16.1% and the inhibition at 21 µM (IL-2; [5]) was 47.4%. The inhibition at 42 µM (IL-2; [5]) was 90.3%, the inhibition at 84 µM (IL-2; [5]) was 103% and the “percent inhibition … IL-2” value (IL-2; [6]) was 0%. For the same compound, the “percent inhibition of cytokine secretion, TNFα (LPS)” value (shortened to “percent inhibition … (LPS)”) (TNFα [3]; [6]) was 0% and the “percent inhibition … (PI)” value (TNFα [2]; [6]) was 6%.
For `COCCCC/C(=N\OCCN)c1ccc(C(F)(F)F)cc1` [Fluvoxamine], the “percent inhibition … IL-1β” value (IL-1β; fluvoxamine alone, concentration (μM), 63 to 0.031) was 0%, the inhibition at 5 µM (IL-2; [5]) was 3.6% and the inhibition at 10 µM (IL-2; [5]) was 8.1%. The inhibition at 20 µM (IL-2; [5]) was 22%, the “percent inhibition … (LPS)” value (TNFα [3]; fluvoxamine alone, 63 to 0.031) was 0% and the “percent inhibition … (PI)” value (TNFα [2]; fluvoxamine alone, 63 to 0.031) was 0%.
In the case of `NCCC(Oc1ccc(C(F)(F)F)cc1)c1ccccc1` (stereo not shown) [Norfluoxetine, norfluoxetine], the “percent inhibition … IL-1β” value (IL-1β; norfluoxetine alone, concentration (μM), 45.00 to 0.02) was 0%, the “percent inhibition … IL-2” value (IL-2; [7]) was 0% and the “percent inhibition … (LPS)” value (TNFα [3]; [7]) was 0%. For the same compound, the “percent inhibition … (PI)” value (TNFα [2]; [7]) was 0%.
With `Fc1ccc([C@@H]2CCNC[C@H]2COc2ccc3c(c2)OCO3)cc1` [Paroxetine] the “percent inhibition … IL-1β” value (IL-1β; paroxetine alone, concentration (μM) in c4 of the same row, 53.00 to 0.05) was 0%, the inhibition at 18 µM (IL-2; [5]) was 54.2% and the inhibition at 36 µM (IL-2; [5]) was 83.5%. For the same compound, the inhibition at 72 µM (IL-2; [5]) was 95.7%, the “percent inhibition … IL-2” value (IL-2; [8]) was 0% and the “percent inhibition … (LPS)” value (TNFα [3]; [8]) was 0%. The inhibition at 28 µM (IL-5) was 97.8%, the inhibition at 28 µM (IL-4) was 97.1% and the “percent inhibition … (PI)” value (TNFα [2]; [8]) was 0%.
With `C[C@]12C=CC(=O)C=C1CC[C@@H]1[C@@H]2[C@@H](O)C[C@@]2(C)[C@H]1CC[C@]2(O)C(=O)CO` [Prednisolone, prednisolone] the inhibition at 0.5 µM (TNFα [1]; Prednisolone 0.500 μM alone) was 29.1%, the inhibition at 1 µM (TNFα [1]; Prednisolone 1.0000 μM alone) was 34% and the inhibition at 0.0008 µM (TNFα [1]; prednisolone 0.0008 μM, fluoxetine concentration (μM), 7.230 to 0.000) was 3.8%. The inhibition at 0.003 µM (TNFα [1]; [9]) was 4.4%, the inhibition at 0.003 µM (TNFα [1]; [10]) was -0.1% and the inhibition at 0.006 µM (TNFα [1]; [9]) was 7%. It also gave an inhibition at 0.006 µM (TNFα [1]; [10]) of 4.6%, an inhibition at 0.05 µM (TNFα [1]; [9]) of 24.3% and an inhibition at 0.05 µM (TNFα [1]; [10]) of 23.4%. It also gave an inhibition at 0.1 µM (TNFα [1]; [9]) of 31.6%, an inhibition at 0.1 µM (TNFα [1]; [10]) of 29.4% and an inhibition at 0.2 µM (TNFα [1]; [9]) of 39.7%. For the same compound, the inhibition at 0.2 µM (TNFα [1]; [10]) was 34.1%, the inhibition at 0.4 µM (TNFα [1]; prednisolone 0.400 μM, paroxetine concentration (μM), 6.000 to 0.000) was 36.2% and the inhibition at 0.5 µM (TNFα [1]; prednisolone 0.500 μM, fluoxetine concentration (μM), 0 to 29.00) was 39%. It also gave an inhibition at 0.5 µM (TNFα [1]; prednisolone 0.500 μM, paroxetine concentration (μM), 0 to 27.00) of 35.4%, an inhibition at 1 µM (TNFα [1]; prednisolone 1.0000 μM, fluoxetine concentration (μM), 0 to 29.00) of 35.1% and an inhibition at 1 µM (TNFα [1]; prednisolone 1.0000 μM, paroxetine concentration (μM), 0 to 27.00) of 38.6%. For the same compound, the inhibition at 1 µM (IL-5) was 75.5% and the inhibition at 1 µM (IL-4) was 47.8%.
For `CNCC[C@@H](Oc1ccc(C(F)(F)F)cc1)c1ccccc1` [R(+) Fluoxetine], the “percent inhibition … IL-1β” value (IL-1β; R(+) fluoxetine alone, concentration (μM), 58 to 0.028) was 0%, the “percent inhibition … IL-2” value (IL-2; [11]) was 0% and the “percent inhibition … (LPS)” value (TNFα [3]; [11]) was 0%. The “percent inhibition … (PI)” value (TNFα [2]; [11]) was 0%.
With `CNCC[C@H](Oc1ccc(C(F)(F)F)cc1)c1ccccc1` [S(+) Fluoxetine] the “percent inhibition … IL-1β” value (IL-1β; S(+) fluoxetine alone, concentration (μM), 58 to 0.028) was 0%, the “percent inhibition … IL-2” value (IL-2; [12]) was 0% and the “percent inhibition … (LPS)” value (TNFα [3]; [12]) was 0%. For the same compound, the “percent inhibition … (PI)” value (TNFα [2]; [12]) was 0%.
`COc1ccc(C(CN(C)C)C2(O)CCCCC2)cc1` (stereo not shown) [Venlafaxine] was tested, and the “percent inhibition … (LPS)” value (TNFα [3]; venlafaxine alone, 39.83 to 0.02) was 3.33%.
